Records with an inconclusive call do not appear. Active and inactive are the calls of the source. No rule for the calls is given here.
These compounds were tested on Mycobacterium tuberculosis non-replicating, growth inhibition (assay: growth inhibition of non-replicating M. tuberculosis (AID 488890)).

SMILES | IC50
COc1cc(/C=C2/C(=O)NN(c3ccc(Cl)cc3)C2=O)ccc1OC(=O)c1ccco1 | 5.12 µM
CN1CCN(c2cc3c(cc2F)c(=O)c(C(=O)O)cn3CCF)CC1 | 7.52 µM
CC(C)=CCN1CCN(Cc2cn(C(C)C)c3ccccc23)CC1CCO (stereo unspecified) | 22.1 µM (inactive)
COc1cc(/C=N/NC(=O)c2ccccn2)ccc1OC(=O)c1cccs1 | 2.85 µM
O=C(COc1ccc(F)cc1)N/N=C/c1cccc2cccnc12 | 3.84 µM
CCn1c(O)c(C(=O)CC2NCCc3ccccc32)c(=O)n(CC)c1=S (stereo unspecified) | 21.8 µM (inactive)
COc1ccc(/C=N/NC(=O)c2ccncc2)cc1CN1CCOCC1 | 4.37 µM
CCOc1cccc(/C=N/NC(=O)c2ccc3c(c2)OCCO3)c1O | 1.12 µM
Cn1nnnc1Sc1ncnc2scc(-c3ccc[nH]3)c12 | 8.43 µM
CCOC(=O)N1CCN(Cc2cc(Cl)c3cccnc3c2O)CC1 | 3.55 µM
O=C(Nc1nccs1)c1ccc2ccccc2c1 | 13.8 µM (inactive)
CCSc1nc(O)c(C2OC(=O)c3c2ccc(OC)c3OC)c(=O)n1-c1ccccc1 (stereo unspecified) | 13.3 µM (inactive)
CCC(=O)c1ccc(OCC(=O)OCC(=O)N2CCc3ccccc3C2)cc1 | 13 µM (inactive)
Cc1cccc(CSc2nnc(-c3ccco3)o2)c1 | 0.67 µM
O=C(Nc1nnc(C2=COCCO2)o1)c1cccc(C(F)(F)F)c1 | 17.7 µM (inactive)
CC(=O)c1ccc(NC(=O)c2cc(CC(C)C)on2)cc1 | 3.58 µM
CCOC(=O)COc1ccc2c(c1)c(C(=O)OCC)c(C)n2CC | 10.9 µM (inactive)
CCC(C)[C@H]1CN=C(N)N1CCc1cccc2ccccc12 (stereo partly specified) | 12.5 µM (inactive)
COc1ccccc1NC(=O)c1ccc([N+](=O)[O-])o1 | 1.12 µM

SMILES | IC50
O=C(COC(=O)CCN1C(=O)/C(=C\C=C\c2ccccc2)SC1=S)Nc1cc(F)ccc1F | 13.9 µM (inactive)
CC(C)(C)NCc1cc(Br)ccc1OCc1cccs1 | 9.07 µM
O=[N+]([O-])c1ccc2nc(SCc3cn4cc(Cl)ccc4n3)[nH]c2c1 | 8.17 µM
O=[N+]([O-])c1cncc([N+](=O)[O-])c1Nc1cccc(O)c1 | 22.3 µM (inactive)
Cc1cc(N/N=C/c2ccccc2[N+](=O)[O-])nc(-n2nc(C)cc2C)n1 | 1.96 µM
O=C(Cc1ccc(Cl)cc1)OCC(=O)c1ccc[nH]1 | 5.58 µM
N#CC(C(=O)Nc1ccccc1)=C1Nc2ccccc2N1 | 37.8 µM (inactive)
CC(=O)Oc1ccc(N(C(C)=O)S(=O)(=O)c2cccs2)c2ccccc12 | 11.6 µM (inactive)
CCCCCCCCCCn1ccc(=N)cc1 | 14.5 µM (inactive)
Cc1cccc(OCCN2CSC(=S)N(C)C2)c1 | 16.4 µM (inactive)
COc1ccc(/C=C2\COc3ccccc3C2=O)cc1OC | 12.5 µM (inactive)
COc1ccccc1CCNC(=O)c1ccc(C)o1 | 2.96 µM
COc1ccccc1-c1nnc(-c2ccc(C)cc2)o1 | 6.42 µM
CCCNC(=O)c1ccc(COc2ccc(C)cc2)o1 | 32.9 µM (inactive)
Cc1cc(N2CCC(C)CC2)nc(NCc2ccccc2)n1 | 16.4 µM (inactive)
COc1cccc(-c2nc(C=O)cs2)c1 | 37.2 µM (inactive)
Cc1cc(C)c2sc(NC(=O)C3=COCCO3)nc2c1 | 8.29 µM
Cc1ccc(-c2nnc(Cc3ccc([N+](=O)[O-])cc3)o2)cc1 | 1.77 µM
O=C(COc1ccc([N+](=O)[O-])cc1)NNC(=O)c1cccs1 | 28.1 µM (inactive)

SMILES | IC50
O=C(COC(=O)CCC(=O)c1ccc(F)cc1)Nc1ccc(F)cc1F | 24.6 µM (inactive)
COc1ccc(COC(=O)CCNC(=O)c2ccc(Cl)cc2)cc1 | 8.25 µM
CCc1cc(C=NC2CCCCC2)c(O)s1 | 1.78 µM
Cc1ccc(CSCCNC(=O)c2cccc([N+](=O)[O-])c2)cc1 | 18.4 µM (inactive)
Clc1ccc2c(c1)C(N1CCNCC1)Cc1ccccc1S2 (stereo unspecified) | 15.2 µM (inactive)
C[C@@H]1CN=C2N(CCNC(=O)CCC3CCCCC3)[C@H](Cc3ccc(O)cc3)CN21 | 18.9 µM (inactive)
Cc1cc(NC(=O)C2CCCCC2)n(-c2nc3ccccc3[nH]2)n1 | 6.84 µM
Cc1ccc(-c2noc(CCC(=O)Nc3cccc(C#N)c3)n2)cc1 | 17.4 µM (inactive)
O=C(NNC1=C(C(=O)C(F)(F)F)CCC1)c1ccccc1Cl | 1.32 µM
COc1ccc(C2=NC(=O)/C(=C\c3cc(OC)c(OC)c(OC)c3)O2)cc1 | 3.37 µM
O=C(Nc1ccc([N+](=O)[O-])cc1)C1COc2ccccc2O1 (stereo unspecified) | 10.2 µM (inactive)
c1ccc(-c2n[nH]c(-c3ccccn3)n2)nc1 | 6.04 µM
COc1ccc(N=N/C(=C\O)C(=O)c2cccs2)cc1 | 9.69 µM
COc1ccc(OC(=O)c2cc3cc(Cl)ccc3oc2=O)cc1 | 10.1 µM (inactive)
CC(=O)c1cccc(NC(=O)C2COc3ccccc3O2)c1 (stereo unspecified) | 24 µM (inactive)
Cc1ccc(C(=O)CCNc2ccc(Br)cc2)o1 | 1.84 µM
CCOC(=O)c1cc(-c2csc(COc3ccccc3Cl)n2)on1 | < 0.1 µM
O=C(COc1ccc(Br)cc1)N/N=C1/SCC(=O)N1Cc1ccccc1 | 13 µM (inactive)
